Patent US9181266B2, “2-piperidin-1-yl-acetamide compounds for use as tankyrase inhibitors” (NOVARTIS AG, priority 2011, dated 2015)

Key:
[1] = system: Non-small lung cancer ABC-1 cells; assay: Cellular proliferation assay (CellTiter-Glo); type: cell-based; details: Homo sapiens, 72 h; ABC-1 cells, 3 days of compound treatment; read-out: ABC-1 IC50
Experimental: Cellular Proliferation Assay to Determine Compound Inhibition of Cancer Cell Growth
Viable cells were measured after 3 days of compound treatment using the CellTiter-Glo assay (Promega, G7570). Assay was performed following the manufacture protocol.

[2] = system: Axin2 protein in SW480 cells; assay: Cellular ELISA assay of Axin2 protein stabilization; type: cell-based; details: Homo sapiens, 24 hrs, read-out: Axin AC50
In short: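 SW480 colorectal cells seeded overnight, treated with compound, then lysed. Axin2 in lysates measured by sandwich ELISA: anti-Axin2 capture antibody coated at 1 μg/ml (pH 9.2), lysate 2 h at room temperature, biotinylated anti-Axin2 detection 2 h, then streptavidin-HRP 30 min.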

[3] = biological target: human tankyrase 1 PARP catalytic domain, TNKS1P (Homo sapiens (Human), UniProt O95271); assay: TNKS1 autoparsylation assay (LC/MS detection of nicotinamide); details: read-out: TNKS1 AP IC50, 20 nM enzyme, 250 μM β-NAD+, 60 min
Sequence of human tankyrase 1 PARP catalytic domain, TNKS1P (O95271 1112-1317): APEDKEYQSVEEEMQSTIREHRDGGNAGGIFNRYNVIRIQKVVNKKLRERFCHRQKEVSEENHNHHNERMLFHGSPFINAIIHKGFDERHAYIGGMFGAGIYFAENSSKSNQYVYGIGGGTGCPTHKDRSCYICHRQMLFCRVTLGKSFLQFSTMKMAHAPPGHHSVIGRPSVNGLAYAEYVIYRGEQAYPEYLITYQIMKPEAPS
Experimental: (§2) Biochemical Assay to Determine Compound Inhibition of TNKS Enzyme Activity
(§3) The autoparsylation activity of the TNKS 1/2 or PARP1/2 enzymes was measured by the liquid chromatography-mass spectrometry (LC/MS) detection of nicotinamide as readout. Compound activity in inhibiting the TNKS and PARP autoparsylation was evaluated by IC50 measurements. […] For the background control wells, 10 μL of the 5× quenching solution per well was added prior to the addition of β-NAD^+. The % Inhibition was calculated as: (Control−Sample)/(Control−Background)*100.

Human PARP1 = Human PARP1 (Homo sapiens (Human), UniProt P09874); assay: PARP1 autoparsylation assay (LC/MS detection of nicotinamide); type: biochemical; details: 20 nM enzyme, 250 μM β-NAD+, 60 min
Sequence of Human PARP1 (P09874 whole entry): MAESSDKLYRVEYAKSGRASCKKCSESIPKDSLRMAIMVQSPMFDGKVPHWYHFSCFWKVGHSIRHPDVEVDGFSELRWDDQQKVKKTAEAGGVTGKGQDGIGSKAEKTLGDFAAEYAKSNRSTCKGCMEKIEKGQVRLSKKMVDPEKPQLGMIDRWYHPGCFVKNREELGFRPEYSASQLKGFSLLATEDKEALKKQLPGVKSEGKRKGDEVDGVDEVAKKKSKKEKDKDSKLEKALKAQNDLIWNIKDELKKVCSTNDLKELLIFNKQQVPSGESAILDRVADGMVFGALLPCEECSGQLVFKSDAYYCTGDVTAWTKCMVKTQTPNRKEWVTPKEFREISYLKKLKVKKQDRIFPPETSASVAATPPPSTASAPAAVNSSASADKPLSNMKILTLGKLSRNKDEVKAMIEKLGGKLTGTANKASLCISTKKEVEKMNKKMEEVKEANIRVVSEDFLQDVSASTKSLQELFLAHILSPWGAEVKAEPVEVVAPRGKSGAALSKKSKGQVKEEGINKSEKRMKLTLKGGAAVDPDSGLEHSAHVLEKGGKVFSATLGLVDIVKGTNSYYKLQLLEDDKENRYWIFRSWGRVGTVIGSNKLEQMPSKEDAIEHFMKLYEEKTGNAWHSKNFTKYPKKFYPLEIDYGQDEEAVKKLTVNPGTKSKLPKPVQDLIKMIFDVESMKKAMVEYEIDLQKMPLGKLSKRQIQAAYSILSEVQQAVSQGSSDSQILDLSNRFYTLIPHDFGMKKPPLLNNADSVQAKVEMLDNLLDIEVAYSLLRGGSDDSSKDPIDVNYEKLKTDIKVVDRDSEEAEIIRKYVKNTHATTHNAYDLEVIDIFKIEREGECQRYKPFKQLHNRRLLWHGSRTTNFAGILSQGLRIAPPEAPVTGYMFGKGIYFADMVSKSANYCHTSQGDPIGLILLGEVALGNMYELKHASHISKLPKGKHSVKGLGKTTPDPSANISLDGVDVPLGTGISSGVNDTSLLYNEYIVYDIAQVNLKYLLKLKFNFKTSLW
Experimental: (§1) The autoparsylation activity of the TNKS 1/2 or PARP1/2 enzymes was measured by the liquid chromatography-mass spectrometry (LC/MS) detection of nicotinamide as readout. Compound activity in inhibiting the TNKS and PARP autoparsylation was evaluated by IC50 measurements.

[4] = biological target: tankyrase 2 protein PARP domain, TNKS2P (Homo sapiens (Human), UniProt Q9H2K2); assay: TNKS2 autoparsylation assay (LC/MS detection of nicotinamide); details: read-out: TNKS2 AP IC50, 20 nM enzyme, 250 μM β-NAD+, 60 min
Sequence of tankyrase 2 protein PARP domain, TNKS2P (Q9H2K2 959-1164): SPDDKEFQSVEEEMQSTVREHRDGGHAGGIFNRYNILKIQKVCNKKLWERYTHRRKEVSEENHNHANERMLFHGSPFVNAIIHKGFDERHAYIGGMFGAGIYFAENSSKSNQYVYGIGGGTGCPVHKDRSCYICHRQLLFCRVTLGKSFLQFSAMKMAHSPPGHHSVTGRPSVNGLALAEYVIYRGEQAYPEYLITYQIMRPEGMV
Experimental: as §2, §3

[5] = system: Wnt ligand-induced signaling in HEK293 cells; assay: Wnt-responsive Super-TOpFlash (STF) luciferase reporter gene assay; type: cell-based; details: Homo sapiens, Wnt3A condition medium
In short: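 HEK293 cells (8000/well, 5% FBS medium) treated with 20% mouse L-cell Wnt3A conditioned medium plus compounds in 10-point serial dilution; luciferase read next day. Inhibition calculated relative to Wnt3A-induced signal without compound and background without Wnt3A CM or compound.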

PARP2 = PARP2 (Mus musculus (Mouse), UniProt O88554); assay: PARP2 autoparsylation assay (LC/MS detection of nicotinamide); type: biochemical; details: 20 nM enzyme, 250 μM β-NAD+, 60 min
Sequence of PARP2 (O88554 whole entry): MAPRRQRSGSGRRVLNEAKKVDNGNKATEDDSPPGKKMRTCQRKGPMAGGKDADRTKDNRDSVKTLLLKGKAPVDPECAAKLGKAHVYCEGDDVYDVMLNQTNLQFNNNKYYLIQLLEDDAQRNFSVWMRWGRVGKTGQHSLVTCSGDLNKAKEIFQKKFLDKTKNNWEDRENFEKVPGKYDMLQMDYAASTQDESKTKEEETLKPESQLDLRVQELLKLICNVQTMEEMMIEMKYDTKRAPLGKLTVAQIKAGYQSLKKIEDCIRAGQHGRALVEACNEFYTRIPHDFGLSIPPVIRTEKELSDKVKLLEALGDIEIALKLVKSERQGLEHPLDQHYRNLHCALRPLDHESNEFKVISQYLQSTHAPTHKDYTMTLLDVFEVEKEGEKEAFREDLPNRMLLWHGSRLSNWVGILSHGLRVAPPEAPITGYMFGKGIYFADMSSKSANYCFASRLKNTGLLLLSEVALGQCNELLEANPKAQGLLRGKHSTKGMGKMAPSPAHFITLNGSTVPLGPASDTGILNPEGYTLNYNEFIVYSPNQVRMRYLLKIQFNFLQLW
Experimental: as §1

Row | Compound | IC50 [1] [nM] | AC50 [2] [nM] | IC50 [3] [nM] | IC50 (Human PARP1) [nM] | IC50 [4] [nM] | IC50 [5] [nM] | IC50 (PARP2) [nM]
1 | O=C(c1ccc(F)cc1)C1CCN(CC(=O)N(Cc2nc3c(c(=O)[nH]2)COCC3)Cc2ccc(F)cc2F)CC1 [Example 40, N-(2,4-Difluorobenzyl)-2-(4-(4-fluorobenzoyl)piperidin-1-yl)-N-((4-oxo-4,5,7,8-tetrahydro-3H-pyrano[4,3-d]pyrimidin-2-yl)methyl)acetamide] | 520 ± 14 | 431 ± 40 | 77 ± 5 | > 19000 | 14 ± 1 | 28 ± 4 | > 19000
2 | COc1ccc(C(=O)C2CCN(CC(=O)NCc3nc4c(c(=O)[nH]3)CCC4)CC2)cc1 [Example 11, 2-(4-(4-Methoxybenzoyl)piperidin-1-yl)-N-((4-oxo-4,5,6,7-tetrahydro-3H-cyclopenta[d]pyrimidin-2-yl)methyl)acetamide] | 18 | 15 ± 4 | 28.5 ± 3.5 | 17900 ± 1800 | 110 ± 140 | 3 ± 1 | 4620 ± 20
3 | CC[C@@H](C)N(Cc1nc2c(c(=O)[nH]1)COCC2)C(=O)CN1CCC(C(=O)c2ccc(F)cc2)CC1 [Example 32, (R)—N-sec-Butyl-2-(4-(4-fluorobenzoyl)piperidin-1-yl)-N-((4-oxo-4,5,7,8-tetrahydro-3H-pyrano[4,3-d]pyrimidin-2-yl)methyl)acetamide] | 370 | 910 ± 150 | 43 ± 2 | > 19000 | 13 ± 1 | 49 ± 14 | > 19000
4 | COc1ccc(C(=O)C2CCN(CC(=O)N(Cc3nc4c(c(=O)[nH]3)COCC4)CC(F)F)CC2)cc1 [Example 50, N-(2,2-Difluoro-ethyl)-2-[4-(4-methoxy-benzoyl)-piperidin-1-yl]-N-(4-oxo-3,5,7,8-tetrahydro-4H-pyrano[4,3-d]pyrimidin-2-ylmethyl)-acetamide] | 45 | 30 ± 6 | 18 ± 7 | > 19000 | 12 ± 1 | 9.5 ± 0.5 | > 19000
5 | O=C(CN1CCC2(CC1)Cc1cc(F)ccc1C2=O)NCc1nc2c(c(=O)[nH]1)COCC2 [Example 61, 2-(5-Fluoro-1-oxo-1,3-dihydrospiro[indene-2,4′-piperidine]-1′-yl)-N-((4-oxo-4,5,7,8-tetrahydro-3H-pyrano[4,3-d]pyrimidin-2-yl)methyl)acetamide] | 8120 |  | 25 ± 6 | 6500 ± 1700 | 8 ± 2.6 | 1600 ± 800 | > 19000
6 | C[C@H](c1ccccc1)N(Cc1nc2c(c(=O)[nH]1)COCC2)C(=O)CN1CCC(C(=O)c2ccc(F)cc2)CC1 [Example 4, 2-[4-(4-Fluoro-benzoyl)-piperidin-1-yl]-N-(4-oxo-3,5,7,8-tetrahydro-4H-pyrano[4,3-c]pyrimidin-2-ylmethyl)-N—((R)-1-phenyl-ethyl)-acetamide] |  | 363 ± 37 | 63 ± 5 | > 19000 | 16 ± 1 | 59 ± 17 | > 19000
7 | COc1cccc(C(=O)C2CCN(CC(=O)N(Cc3nc4c(c(=O)[nH]3)COCC4)CC(F)F)CC2)c1 [Example 73, N-(2,2-Difluoro-ethyl)-2-[4-(3-methoxy-benzoyl)-piperidin-1-yl]-N-(4-oxo-3,5,7,8-tetrahydro-4H-pyrano[4,3-d]pyrimidin-2-ylmethyl)-acetamide] |  | > 10000 | 49 ± 1 | > 19000 | 16 ± 2 | 470 ± 150 | > 19000
8 | COc1ccc(CN(Cc2nc3c(c(=O)[nH]2)COCC3)C(=O)CN2CCC(C(=O)c3ccc(F)cc3)CC2)cc1 [Example 16, 2-(4-(4-Fluorobenzoyl)piperidin-1-yl)-N-(4-methoxybenzyl)-N-((4-oxo-4,5,7,8-tetrahydro-3H-pyrano[4,3-d]pyrimidin-2-yl)methyl)acetamide] | 340 | 587 ± 87 | 66 ± 4 | > 19000 | 15 ± 2 | 49 ± 43 | > 19000
9 | O=C(c1ccc(F)cc1)C1CCN(CC(=O)N(Cc2nc3c(c(=O)[nH]2)COCC3)C[C@@H]2CCCO2)CC1 [Example 28, (S)-2-(4-(4-Fluorobenzoyl)piperidin-1-yl)-N-((4-oxo-4,5,7,8-tetrahydro-3H-pyrano[4,3-d]pyrimidin-2-yl)methyl)-N-((tetrahydrofuran-2-yl)methyl)acetamide] |  | 101 ± 19 | 24 ± 1 | > 19000 | 10 ± 1 | 15 ± 4 | > 19000
10 | CC[C@H](C)CN(Cc1nc2c(c(=O)[nH]1)COCC2)C(=O)CN1CCC(C(=O)c2ccc(F)cc2)CC1 [Example 25, 2-[4-(4-Fluoro-benzoyl)-piperidin-1-yl]-N—((S)-2-methyl-butyl)-N-(4-oxo-3,5,7,8-tetrahydro-4H-pyrano[4,3-d]pyrimidin-2-ylmethyl)-acetamide] |  | 179 ± 26 | 37 ± 4 | > 19000 | 13 ± 1 | 30 ± 9 | > 19000
11 | CCOc1ccc(C(=O)C2CCN(CC(=O)NCc3nc4c(c(=O)[nH]3)COCC4)CC2)cc1 [Example 66, 2-(4-(4-Ethoxybenzoyl)piperidin-1-yl)-N-((4-oxo-4,5,7,8-tetrahydro-3H-pyrano[4,3-d]pyrimidin-2-yl)methyl)acetamide] |  | > 10000 | 27 ± 10 | 6500 ± 1300 | 9 ± 7 | 5690 ± 170 | 3200 ± 1000
12 | C[C@@H](c1ccccc1)N(Cc1nc2c(c(=O)[nH]1)COCC2)C(=O)CN1CCC(C(=O)c2ccc(F)cc2)CC1 [Example 23, 2-[4-(4-Fluoro-benzoyl)-piperidin-1-yl]-N-(4-oxo-3,5,7,8-tetrahydro-4H-pyrano[4,3-d]pyrimidin-2-ylmethyl)-N—((S)-1-phenyl-ethyl)-acetamide] |  |  | 209 ± 3 | > 19000 | 50 ± 1 | 189 ± 76 | > 19000
13 | O=C(c1ccc(F)cc1)C1CCN(CC(=O)N(Cc2nc3c(c(=O)[nH]2)COCC3)CC2CC2)CC1 [Example 24, N-Cyclopropylmethyl-2-[4-(4-fluoro-benzoyl)-piperidin-1-yl]-N-(4-oxo-3,5,7,8-tetrahydro-4H-pyrano[4,3-d]pyrimidin-2-ylmethyl)-acetamide] | 276 ± 37 | 320 ± 180 | 35 ± 10 | > 19000 |  |  | > 19000
14 | N#Cc1ccc(CN(Cc2nc3c(c(=O)[nH]2)COCC3)C(=O)CN2CCC(C(=O)c3ccc(F)cc3)CC2)s1 [Example 46, N-(5-Cyano-thiophen-2-ylmethyl)-2-[4-(4-fluoro-benzoyl)-piperidin-1-yl]-N-(4-oxo-3,5,7,8-tetrahydro-4H-pyrano[4,3-d]pyrimidin-2-ylmethyl)-acetamide] |  | 275 ± 84 | 53 ± 4 | > 19000 | 16 ± 1.4 | 36 ± 8 | > 19000
15 | COc1ccc(C(=O)C2CCN(CC(=O)NCc3cc4c(c(=O)[nH]3)COCC4)CC2)cc1 [Example 97, 2-[4-(4-Methoxy-benzoyl)-piperidin-1-yl]-N-(8-oxo-3,4,7,8-tetrahydro-1H-pyrano[3,4-c]pyridin-6-ylmethyl)-acetamide] |  | 266 ± 58 | 100 ± 10 | 7500 ± 400 | 27 ± 1 |  | 1150 ± 9
16 | C#CCN(Cc1nc2c(c(=O)[nH]1)COCC2)C(=O)CN1CCC(C(=O)c2ccc(F)cc2)CC1 [Example 27, 2-(4-(4-Fluorobenzoyl)piperidin-1-yl)-N-((4-oxo-4,5,7,8-tetrahydro-3H-pyrano[4,3-d]pyrimidin-2-yl)methyl)-N-(prop-2-ynyl)acetamide] |  | 3640 ± 660 | 43 ± 1 | > 19000 | 14 ± 1 | 53 ± 45 | > 19000
17 | O=C(c1ccc(F)cc1)C1CCN(CC(=O)N(Cc2cccc(F)c2)Cc2nc3c(c(=O)[nH]2)COCC3)CC1 [Example 19, 2-(4-(4-Fluorobenzoyl)piperidin-1-yl)-N-(3-fluorobenzyl)-N-((4-oxo-4,5,7,8-tetrahydro-3H-pyrano[4,3-d]pyrimidin-2-yl)methyl)acetamide] |  | 779 ± 83 | 84 ± 7 | > 19000 | 21 ± 1 | 92 ± 77 | > 19000
18 | O=C(CN1CCC(n2c(=O)[nH]c3ccccc32)CC1)NCc1nc2c(c(=O)[nH]1)COCC2 [Example 82, 2-(4-(2-Oxo-2,3-dihydro-1H-benzo[d]imidazol-1-yl)piperidin-1-yl)-N-((4-oxo-4,5,7,8-tetrahydro-3H-pyrano[4,3-d]pyrimidin-2-yl)methyl)acetamide] |  |  | 222 ± 2 | 32400 ± 4600 | 39 ± 3 | 787 ± 23 | 2900 ± 900
